# Active and inactive are the calls of the source.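 Rule for the calls: active = compounds giving half or more protection of infected cells from virus-caused growth loss, again on retest; inactive = the rest.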
# Test system: CEM cells HIV-1 protection, formazan growth assay
# Assay: NCI AIDS Antiviral Assay
# Settings: for IC50: measured here: growth of uninfected CEM cells
# Procedure, shortened: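 Five concentrations of each compound were applied to infected and uninfected human CEM cells. Protection from HIV-1 was judged from growth measured with a soluble formazan assay.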
SMILES,EC50,IC50,outcome
O=C(Nc1ccc(Br)cc1)c1c(-c2ccccc2)c2ccc(O)cc2oc1=O,> 34.7 µM,32.4 µM,–
CC1=C(C(=O)CC(=O)C(=O)Nc2ccccc2C(F)(F)F)Sc2ccccc2N1,–,–,inactive
Cc1nn2c(N)cc(=O)nc2nc1/C=C/c1ccc(N(C)C)cc1,> 200 µM,4.27 µM,–
ON1CCc2c([nH]c3ccccc23)C1c1ccc(Cl)cc1 (stereo not drawn),–,–,inactive
CC(=O)OC12c3ccccc3-c3ccccc3C1C(C(=O)O)C2(Cl)C(=O)O (stereo not drawn),> 646 µM,355 µM,–
Clc1ccc2nc3nc(-c4ccccc4)c(-c4ccccc4)nc3nc2c1,> 19.5 µM,> 19.5 µM,–
COc1cc(C2C(C(=O)NCc3ccccc3)=C(C)NC(C)=C2C(=O)NCc2ccccc2)ccc1O,> 72.4 µM,49 µM,–
COc1c(Cl)cc(C(=CCN[C@H]2CC[C@@]3(C)[C@@H](CC[C@@H]4[C@@H]3CC[C@]3(C)[C@@H]([C@H](C)CCCC(C)C)CC[C@@H]43)C2)c2cc(Cl)c(OC)c(C(=O)O)c2)cc1C(=O)O,> 50.1 µM,> 50.1 µM,–
O=C1C(=O)N(c2cc(Cl)ccc2Cl)C(=O)C(=O)C1c1nc2ccccc2s1,–,–,inactive
C1CN(SSN2CCSCC2)CCS1,> 5.37 µM,> 5.37 µM,–
CC1=Nc2c([nH]c(=S)[nH]c2=O)NC(c2c(Cl)cccc2Cl)C1 (stereo not drawn),> 7.76 µM,> 7.76 µM,–
Cc1cccc2nc3nc(Cl)c(Cl)nc3n12,> 200 µM,129 µM,–
c1ccc(CNC2C(c3ccccc3)=NN(c3ccccc3)C2c2ccccc2)cc1 (stereo not drawn),> 200 µM,> 200 µM,–
O=c1[nH]c2ccc(CC(=S)N3CCOCC3)cc2o1,> 200 µM,> 200 µM,–
CO[C@H]1ON=C(c2c(C)cc(C)cc2C)[C@@H]1C1(c2ccccc2)ON=C(c2c(C)cc(C)cc2C)O1 (stereo partly drawn),> 200 µM,–,–
CC(C)(C)OC(=O)NCC(=O)NC1c2ccsc2/C(=N/O)[C@H]1O (stereo partly drawn),> 200 µM,> 200 µM,–
O=C1NC(Cc2ccc(Cl)cc2)C(=O)N2CCCC12 (stereo not drawn),> 200 µM,95.5 µM,–
CN(C)c1cc2ccccc2oc1=O,> 692 µM,> 692 µM,–
CCOC(=O)/C(C(=O)c1ccc[nH]1)=C1/CCCN1C,> 200 µM,129 µM,–
Cc1cc(C)nc(NC(=S)Nc2ccc(Cl)cc2)c1,> 100 µM,> 100 µM,–
COC(=O)CCS/C=C/C(=O)O,> 1320 µM,> 1320 µM,–
Cc1ccccc1-n1c(C)nc(-c2ccccc2)cc1=O,> 26.3 µM,> 26.3 µM,–
CC(C)N(C(=O)C12C3C4C1(I)C1C2C3(I)C41C(=O)N(C(C)C)C(C)C)C(C)C (stereo not drawn),> 8.51 µM,> 8.51 µM,–

SMILES,EC50,IC50,outcome
CN(C)c1ccc(/C=C(\C#N)c2ccc(Cl)c(Cl)c2)cc1,> 100 µM,3.63 µM,–
c1ccc(C2=Nc3ccccc3N=C(c3ccccc3)C2)cc1,> 17.8 µM,> 17.8 µM,–
CN(C)CC1CCCC/C1=N/O (stereo not drawn),–,–,inactive
CC(C)[C@@H]1CC[C@@H](C)C[C@H]1OC(=O)/C=C1\C(C(=O)O[C@@H]2C[C@H](C)CC[C@H]2C(C)C)[C@H]2C=C[C@@H]1O2 (stereo partly drawn),> 200 µM,> 200 µM,–
N.N.N.N.N.N.[Br-].[Co+3],–,–,inactive
COc1ccc2nc3cc(Cl)ccc3c(Sc3ccc(N)cc3)c2c1,> 14.1 µM,3.31 µM,–
O=C(Nc1c(Cl)cc([N+](=O)[O-])cc1Cl)/C(=N\Nc1cccc(Cl)c1)c1c(O)c2ccccc2oc1=O,> 24.5 µM,> 24.5 µM,–
COc1cc2c(cc1O)CC[C@@H]1C2CC[C@@]2(C)C1CC[C@@H]2O (stereo partly drawn),> 2 µM,0.331 µM,–
O=C(Nc1ccccc1)N1CC(CN2CCN(c3ccccc3)CC2)OC1=O (stereo not drawn),> 200 µM,> 200 µM,–
Nc1nncc2n[nH]nc12,> 200 µM,174 µM,–
Cc1ccc(N=N/C(=N/NC(=O)c2cc(Cl)ccc2C(=O)c2ccccc2)c2ccc(N(CCC#N)CCC#N)cc2C)cc1,> 200 µM,11.7 µM,–
COc1ccc(-c2cc3c(c4cc(OC)ccc24)C(=O)OC3=O)cc1,> 11.2 µM,> 11.2 µM,–
COc1cc(COC(=O)N2CCC2C(=O)O)c([N+](=O)[O-])cc1OC (stereo not drawn),> 741 µM,> 741 µM,–
c1cc2c(cc1NC1=NCCO1)OCO2,> 200 µM,58.9 µM,–
N#CC(C(=O)CCC(=O)C(C#N)c1ccccc1)c1ccccc1 (stereo not drawn),> 398 µM,> 398 µM,–
O=c1ccn2n1CCCCC2,> 200 µM,> 200 µM,–
CC1(C)CN(C(=O)OCc2ccccc2)[C@@H]2N1C(=O)[C@@]2(C)OCCCO[C@@]1(C)C(=O)N2[C@@H]1N(C(=O)OCc1ccccc1)CC2(C)C,> 200 µM,26.9 µM,–
S=c1[nH]c2ccc(Br)cc2c(=S)n1-c1ccccc1,> 195 µM,56.2 µM,–
Cc1c(C(=O)N(CCO)CCO)[n+](=O)c2ccccc2n1[O-],> 575 µM,> 575 µM,–
CC(=O)Nc1cc2c(s1)CCC1CC(=O)NN=C21 (stereo not drawn),> 200 µM,> 200 µM,–
Cc1ccsc1/C=N/Nc1cnccn1,> 200 µM,75.9 µM,–
COC(=O)c1cc(C)ccc1/C=C1\Cc2cc(C)c(C)cc2C1=O,> 100 µM,> 100 µM,–
O=[N+]([O-])c1ccc(/C=C/c2cc(-c3ccccc3)nc3ccc4ccccc4c23)cc1,> 200 µM,> 200 µM,–

SMILES,EC50,IC50,outcome
Cc1c([C@H](C)[C@@H]2NC[C@@H](C)C[C@H]2O)ccc2c1C[C@H]1[C@H]2CC=C2C[C@@H](O)CC[C@@]21C,> 1.82 µM,> 1.82 µM,–
Cc1cc(C)n(-c2nc(C)c(CCO)c(=O)[nH]2)n1,–,–,inactive
NC(N)=Nc1ccc(N)cc1,–,–,inactive
N#CSCc1ccc(Cl)cc1,> 28.2 µM,16.2 µM,–
CC(C)(C)C(=O)/C=C/c1ccc(C#N)cc1,–,38.9 µM,inactive
CCCC(=O)Nc1ccc(O)c2c1C1CCCCCC21 (stereo not drawn),> 200 µM,102 µM,–
OCC1OC(n2cnc3cncnc32)CC1O (stereo not drawn),–,–,inactive
Cc1ccc(/C=C2\NC(=S)N(CN3CCCCC3)C2=O)cc1,> 200 µM,29.5 µM,–
CCOC(=O)C1(C#N)C2(C#N)C(N)=NC(ON=C(C)C)(ON=C(C)C)C12C#N (stereo not drawn),> 200 µM,> 200 µM,–
Cc1ccc(/C([O-])=C(/C(=S)Nc2ccccc2)[n+]2ccccc2)cc1,> 200 µM,> 200 µM,–
Cn1nc(N)nc1N=S(C)(C)=N,> 1320 µM,> 1320 µM,–
C/C=C1\C=C(OC)CN(CCc2c[nH]c3ccccc23)C1,> 158 µM,50.1 µM,–
CCOC(=O)/C(=C\c1ccc([N+](=O)[O-])cc1)[Se]c1ccccc1,> 69.2 µM,26.9 µM,–
NNC(=O)C(O)C(O)C(=O)NN (stereo not drawn),> 1410 µM,631 µM,–
CCOC(=O)c1c(N)sc2c1C(C(=O)OCC)CCC2 (stereo not drawn),> 200 µM,112 µM,–
NC(=O)CC[C@@H]1NC[C@H](C(O)C(O)C(O)CO)OC1=O (stereo partly drawn),> 851 µM,> 851 µM,–
COC(=O)CC1(C)CCC2(OC(CC(C)=O)C3C(C)(C)CCC[C@@]32C)O1 (stereo partly drawn),> 200 µM,141 µM,–
c1ccc(-c2ccccc2SSc2ccccc2-c2ccccc2)cc1,> 200 µM,5.37 µM,–
Cc1cc(O)c2c(c1)C(=O)c1cc(O)cc(O)c1C2=O,–,–,inactive
c1cc2sc1CSCCSCCSC2,> 38 µM,> 38 µM,–
CC(=O)OCC(OC(C)=O)C(OC(C)=O)C(OC(C)=O)C(/C=N\Nc1nc2ccccc2c(=O)[nH]1)=N/Nc1nc2ccccc2c(=O)[nH]1 (stereo not drawn),> 100 µM,> 100 µM,–
C=C(CN)CO[Si](C)(C)C(C)(C)C,> 200 µM,110 µM,–
CCOC(=O)N1CCN(C=S)CC1,> 1230 µM,> 1230 µM,–

SMILES,EC50,IC50,outcome
CCOC(=O)C1(C(F)(F)F)N=C(CC)OC(N2CCOCC2)=N1 (stereo not drawn),> 200 µM,> 200 µM,–
Cc1ccc(/C=C/C(=N/NC(=O)N/N=C(/C=C/c2ccc(C)cc2)C(C)C)C(C)C)cc1,> 100 µM,> 100 µM,–
O=C(c1nsc(Cl)c1Cl)N1CCCCC1,> 200 µM,> 200 µM,–
COC(=O)CNC(=O)/C=C/[C@H](O[Si](C)(C)C(C)(C)C)[C@H](/C=C/C(=O)NCC(=O)OC)O[Si](C)(C)C(C)(C)C,> 25.1 µM,> 25.1 µM,–
FC(F)(F)c1ccc(C2ON=C(c3ccccc3)N2C23CC4CC(CC(C4)C2)C3)cc1 (stereo not drawn),> 200 µM,> 200 µM,–
CCN(CC)CCNc1ccc([N+](=O)[O-])c2nc3ccccc3c(N)c12,> 100 µM,0.575 µM,–
Cc1cn([C@@H]2C[C@H](CO)[C@@H]2O)c(=O)[nH]c1=O,> 200 µM,> 200 µM,–
COc1ccc2c(c1)c(=O)c1c(NCCN(C)C)ccc3c(=O)n(CCN(C)C)c(=O)n2c31,0.0204 µM,0.0324 µM,–
N#CC(C#N)=c1ccc(=C2N3CCCC3CN2C23CC4CC(CC(C4)C2)C3)cc1 (stereo not drawn),–,–,inactive
CC(=O)Oc1ccc2c(=O)c(C(C)=O)coc2c1,–,–,inactive
Oc1cc(O)c2c(-c3c(O)c(-c4ccc(O)c(O)c4)[o+]c4cc(O)cc(O)c34)c(O)c(-c3ccc(O)c(O)c3)[o+]c2c1,–,–,inactive
Cc1cc2ncn(-c3nc4ccccc4nc3C(C#N)S(C)(=O)=O)c2cc1C (stereo not drawn),> 646 µM,57.5 µM,–
CC(C)(C)C1COP(=O)(OCc2ccccc2)OC1 (stereo not drawn),> 631 µM,> 631 µM,–
Cn1cnc2c(sc3nc4ccccc4n32)c1=N,> 200 µM,> 200 µM,–
Cc1nc2ccccc2c(=O)n1NC(=S)Nc1ccc(Cl)cc1[N+](=O)[O-],> 93.3 µM,> 93.3 µM,–
NC(=O)c1ncn(CCN2CCN(C(=O)NCCCCCCNC(=O)N3CCN(CCn4cnc(C(N)=O)c4N)CC3)CC2)c1N,–,–,inactive
CC(=O)c1cc(CC2Cc3cc4c(cc3C2=O)CCC4)cc2c1CCC2 (stereo not drawn),> 200 µM,12.9 µM,–
COc1c2c(cc3c(CCc4ccccc4)cc(=O)oc13)CCC(C)(C)O2,> 14.5 µM,> 14.5 µM,–
CC1=CC(/C=C(\C)CCCc2ccoc2)C2(OC(=O)C(C)=C2O)[C@H]2C1CC[C@@H]2C (stereo partly drawn),–,–,inactive
C/C(=N/NC(=S)N1CCCCC1)c1ccccc1O,> 200 µM,91.2 µM,–

# From PubChem BioAssay AID179 (DTP/NCI, 2004)
